In patent publication US10723764B2, “Anti-microbial peptides and methods of use thereof” (priority 2011, dated 2020):
≈ marks a conversion by molar mass, not a printed value. Where a SMILES comes first, the peptide text is derived from it. Where no end group is shown, it is not given here. [ ]: non-standard residue; d: D form. Phe(4-CF3) = N[C@@H](Cc1ccc(C(F)(F)F)cc1)C(=O)O

Legend:
[1] = system: Pseudomonas aeruginosa PAO1; assay type: cell-based
Protocol: (§1) The bacterial strains used in the study are Bacillus subtilis 168, methicillin-resistant Staphylococcus aureus USA300 LAC (Gram-positive), Escherichia coli K12, and Pseudomonas aeruginosa PAO1 (Gram negative). The antibacterial activities of the peptides were determined using the standard broth microdilution method (Wang et al. (2005) J. Biol. Chem., 280:5803-5811). In brief, the bacterial culture (90 μL) was treated with a series of peptide solutions (10 μL), each with two-fold dilution. After overnight incubation at 37° C., the microplate was read on a ChroMate® 4300 Microplate Reader at 630 nm (GMI, Ramsey, Minn.).
(§2) For the initial screen, antimicrobial activities of these peptides against S. aureus and E. coli were evaluated using the standard broth microdilution protocol (Wang, G. (2008) J. Biol. Chem., 283:32637-43). […] Subsequently, the in vitro activity of these six peptides was evaluated against Bacillus subtilis and Pseudomonas aeruginosa (Table 6). […] While maculatin 1.3 is active against two Gram-positive but not two Gram-negative bacterial strains, DASamP1 is species-specific since it active only against S. aureus. The finding that ascaphin-8, […], and piscidin 1 are wide-spectrum AMPs agrees with the literature (Apponyi et al. (2004) Peptides 25:1035-1054; Conlon et al. (2004) Biochem. Biophys. Res. Commun., 320:170-175; Silphaduang et al. (2001) Nature 414:268-269; Souza et al. (2005) J. Immunol., 186:6585-6596). For lycotoxin I, it was previously found to active against Gram-negative E. coli and yeast (Yan et al. (1998) J. Biol. Chem., 273:2059-2066).
(§3) The antibacterial activities of the peptides were determined using the standard broth microdilution method (Mishra et al. (2012) J. Am. Chem. Soc., 134:12426-12429; Wang et al. (2005) Biol. Chem., 280:5803-5811). Briefly, the bacterial culture was treated with a series of peptide solutions, each with two-fold dilution. After overnight incubation at 37° C., the microplate was read on a ChroMate® 4300 Microplate Reader at 630 nm (GMI, Ramsey, Minn.).

A. baumannii B2367-12 = assay type: cell-based, Acinetobacter baumanii
Protocol: as §3

E. cloacae B2366-12 = assay type: cell-based; details: B2366-12
Protocol: as §3

ESKAPE pathogens = assay type: cell-based
Protocol: as §3
A rational design was conducted on the basis of the 3D structure of GF-17d3. […] The noncoherent packing of the GF-17d3 side chains caused a hydrophobic defect in the structure (FIGS. 8C and 8D, arrow), leading to reduced hydrophobicity. Accordingly, it was hypothesized that the antimicrobial activity of this peptide 17F2 (sequence GX1KRLVQRLKDX2LRNLV (SEQ ID NO: 58), Table 9) could be enhanced by filling in the hydrophobic cavity (FIG. 8D, arrow) with a larger hydrophobic side chain. The antimicrobial activities of these peptide analogues were evaluated using the standard microdilution assays (Mishra et al. (2012) J. Am. Chem. Soc., 134:12426-12429), and the minimal inhibitory concentrations (MIC) against a panel of the ESKAPE pathogens are provided in Table 10. […] To compare the two sites, these two substitutions at positions X1 and X2 were swapped to obtain 17Naph-mF. […] In addition, biphenylalanines were incorporated at position X1 alone or at both X1 and X2 of the 17F2 template. […] The killing abilities of these peptides are essentially proportional to their MIC values as well as retention times (a measure of hydrophobicity) on a reverse-phase HPLC column (Mishra et al. (2012) J. Am. Chem. Soc., 134:12426-12429).

human erythrocytes = details: for hemolysis: human, 160 µM
Protocol: (§4) Peptide hemolysis was assayed using an established protocol (Malmsten et al. (2011) PLoS One 6:e16400). In brief, fresh blood, obtained from the UNMC Blood Bank, was washed three times with PBS buffer and made into a 5% solution. To 90 μL of this solution, 10 μL of a peptide solution was added and incubated at 37° C. for one hour. After centrifugation at 13,000 rpm, aliquots of the supernatant were transferred to a fresh 96 well microplate. The absorbance of the solutions was measured at 545 nm to detect the amount of hemoglobin released. The percent lysis was calculated by assuming 100% release when treated with 2% Triton X-100 and no lysis (0%) when treated with PBS buffer. HL50 was the peptide concentration that caused 50% lysis of human erythrocytes. The cell selectivity (CS) indexes were calculated as the ratio of HL50 to the MIC of the peptide against S. aureus USA300.
(§5) The hemolytic effects of the six peptides were also compared on human red blood cells (hRBC) using an established protocol (Malmsten et al. (2011) PLoS One 6:e16400). […] A high TI indicates good cell selectivity.
(§6) Peptide hemolysis was assayed using an established protocol (Menousek et al. (2012) Int. J. Antimicrob. Agents 39:402-406; Malmsten et al. (2011) PLoS One 6:e16400). Briefly, blood cells were washed three times with phosphate-buffered saline (PBS) and were diluted to a 5% solution. Following peptide treatment, incubation at 37° C. for 1 hour and centrifugation at 13,000 rpm, aliquots of the supernatant were transferred to a fresh 96-well microplate. To assess peptide cytotoxicity, the amount of hemoglobin released was measured at 545 nm. Percent lysis was calculated by assuming 100% release when human blood cells were treated with 2% Triton X-100 and 0% release when they were incubated with PBS buffer.

[2] = human, hemolysis, at 160 μM, human red blood cells
Protocol: as §4, §5, §6

Escherichia coli K12 = details: Table 8
E. faecium ATCC51559 = assay type: cell-based, Enterococcus faecium; details: ATCC51559
Protocol: as §3

[3] = system: methicillin-resistant Staphylococcus aureus USA300 LAC; details: for S. aureus USA 300 MIC: Table 8
Protocol: This was done by modifying the standard microdilution antimicrobial assays (Wang, G. (2008) J. Biol. Chem., 283:32637-32643). Specifically, the bacterial wells with a high peptide concentration (e.g. 100 μM) are duplicated (e.g., two for antimicrobial assays and two for protease stability assays). As an illustration, chymotrypsin was applied to the duplicated wells at a peptide:protease molar ratio of 25:1.

Bacillus subtilis 168 = assay type: cell-based
Protocol: as §1, §2

chymotrypsin = chymotrypsin (Bos taurus, UniProt P00766); assay: Peptide stability to chymotrypsin by SDS-PAGE; assay type: in vitro ADME, bovine; details: 12.5 μM chymotrypsin, peptide/protein 40:1, PBS pH 8, 37° C.
Protocol: A solution (100 μl) of the peptide and 12.5 μM chymotrypsin (peptide/protein molar ratio, 40:1) in 10 mM PBS buffer (pH 8) was incubated at 37° C. Aliquots (10 μl) of the reaction solutions were taken at 0, 2, 4, and 22 hours and immediately mixed with 20 μl of 2×SDS loading buffer to stop the reaction. For the gel analysis, 10 μl of each sample was loaded to the well of a 5% stacking/18% resolving tricine gel. The samples in the lanes are: 1, protein marker; 2, temporin-PTa L-form at 0 hour; 3, 2 hours; 4, 4 hours; 5, 22 hours; 6, temporin-PTa D-form at 0 hour; 7, 2 hours; 8, 4 hours; 9, 22 hours. In the gel, the bands for the peptide and chymotrypsin were indicated with large and small arrows, respectively. Note that the peptide bands were not detected in lanes 3-5 due to protease cleavage but remained essentially constant in lanes 7-9.
Peptide stability was evaluated using standard SDS-PAGE (described in FIG. 5).
Peptide stability was evaluated based on a published protocol (Mishra et al. (2012) J. Am. Chem. Soc., 134:12426-12429) with one modification. Aliquots (10 μL) of the reaction solutions (peptide/protease molar ratio, 40:1) in 10 mM PBS buffer (pH 8) at 37° C. were taken at 0, 6, and 24 hours and immediately mixed with 10 μL of 2×SDS loading buffer followed by boiling for 5 minutes to stop the reaction. Samples were analyzed using 5% stacking/18% resolving tricine gel.

[4] = Peptide solubility (observation); assay type: physicochemical

In the case of `CC(C)C[C@H](NC(=O)[C@H](CC(N)=O)NC(=O)[C@H](CCCNC(=N)N)NC(=O)[C@@H](CC(C)C)NC(=O)[C@H](Cc1ccccc1)NC(=O)[C@H](CC(=O)O)NC(=O)[C@H](CCCCN)NC(=O)[C@@H](CC(C)C)NC(=O)[C@H](CCCNC(=N)N)NC(=O)[C@H](CCC(N)=O)NC(=O)[C@@H](NC(=O)[C@@H](CC(C)C)NC(=O)[C@H](CCCNC(=N)N)NC(=O)[C@H](CCCCN)NC(=O)[C@H](Cc1ccc(C(F)(F)F)cc1)NC(=O)CN)C(C)C)C(=O)N[C@H](C(N)=O)C(C)C` [B128A, GX1KRLVQRLKDX2LRNLV-amide] (H-G[Phe(4-CF3)]KR[dL]VQR[dL]KDF[dL]RNLV-NH2), the “MIC (μM) PA” value [1] is reported as 25 µM (≈ 54.2 µg/mL), the “MIC (μM) AB” value (A. baumannii B2367-12) is reported as 3.1 to 6.2 µM and the “MIC (μM) EC” value (E. cloacae B2366-12) is reported as 25 µM (≈ 54.2 µg/mL). For the same compound, the “MICs against most of the ESKAPE strains” value (ESKAPE pathogens; most of the ESKAPE strains) was 25 to 50 µM, the “HL50 (μM), peptide concentration that causes 50% lysis of human erythrocytes” value (human erythrocytes; Table 10) was greater than 900 µM and the “hemolysis” value (human erythrocytes) was less than 5%. The hemolysis at 160 µM [2] was 3 to 5%, the “E. coli K12 MIC” value (Escherichia coli K12) was 5 µM and the “MIC (μM) EF” value (E. faecium ATCC51559) was 25 to 50 µM. The “MIC (μM) SA” value ([3]; S. aureus USA300 LAC, Table 10) was 25 µM (≈ 54.2 µg/mL) and the “S. aureus USA 300 MIC” value [3] was 40 µM.

With FFGSLLKLLPKLL-NH2 [Temporin-PTa6L] the “MIC (μM) BS” value (Bacillus subtilis 168) was 3.12 µM.

With `CC[C@H](C)[C@H](NC(=O)[C@H](CCCCN)NC(=O)[C@@H]1CCCN1C(=O)[C@@H](NC(=O)[C@H](CC(C)C)NC(=O)[C@H](CCCCN)NC(=O)[C@H](CC(C)C)NC(=O)[C@@H](NC(=O)[C@H](CO)NC(=O)CNC(=O)[C@H](Cc1ccccc1)NC(=O)[C@@H](N)Cc1ccccc1)C(C)C)[C@@H](C)CC)C(=O)N[C@@H](CC(C)C)C(N)=O` [Temporin-PTa, reference compound] the “time the peptide stays intact in the presence of chymotrypsin” value (chymotrypsin) was no more than 2 h.

With LLGSLLKLLPKLL-NH2 [Temporin-PTa8L] the “MIC (μM) PA” value [1] was greater than 100 µM and the “MIC (μM) BS” value (Bacillus subtilis 168) was 3.12 µM.

With `CC(C)C[C@H](NC(=O)[C@H](CC(N)=O)NC(=O)[C@H](CCCNC(=N)N)NC(=O)[C@@H](CC(C)C)NC(=O)[C@H](Cc1ccccc1)NC(=O)[C@H](CC(=O)O)NC(=O)[C@H](CCCCN)NC(=O)[C@@H](CC(C)C)NC(=O)[C@H](CCCNC(=N)N)NC(=O)[C@H](CCC(N)=O)NC(=O)[C@@H](NC(=O)[C@@H](CC(C)C)NC(=O)[C@H](CCCNC(=N)N)NC(=O)[C@H](CCCCN)NC(=O)[C@H](Cc1ccccc1)NC(=O)CN)C(C)C)C(=O)N[C@H](C(N)=O)C(C)C` [A128A, GX1KRLVQRLKDX2LRNLV-amide] (H-GFKR[dL]VQR[dL]KDF[dL]RNLV-NH2) the “MIC (μM) AB” value (A. baumannii B2367-12) was 6.2 to 12.5 µM, the “MIC (μM) EC” value (E. cloacae B2366-12) was 25 µM (≈ 52.5 µg/mL) and the “MIC against E. coli, A. baumannii, and E. cloacae” value (ESKAPE pathogens; E. coli, A. baumannii, and E. cloacae) was 6.2 to 25 µM. The “hemolysis” value (human erythrocytes) was less than 3%, the hemolysis at 160 µM [2] was 3 to 5% and the “E. coli K12 MIC” value (Escherichia coli K12) was 10 µM. The “S. aureus USA 300 MIC” value [3] was greater than 160 µM.

For “GIIPIISIIGKII-NH2 (C-terminus assumed) [DFTamP1-pi]”, the solubility [4] was “poorly soluble”.

In the case of `CC[C@@H](C)[C@@H](NC(=O)[C@@H](CCCCN)NC(=O)[C@H]1CCCN1C(=O)[C@H](NC(=O)[C@@H](CC(C)C)NC(=O)[C@@H](CCCCN)NC(=O)[C@@H](CC(C)C)NC(=O)[C@H](NC(=O)[C@@H](CO)NC(=O)CNC(=O)[C@@H](Cc1ccccc1)NC(=O)[C@H](N)Cc1ccccc1)C(C)C)[C@H](C)CC)C(=O)N[C@H](CC(C)C)C(N)=O` [Temporin-PTa (D-form)], the “time the peptide stays intact in the presence of chymotrypsin” value (chymotrypsin) is reported as “at least 22 hours”, the “MIC (μM) PA” value [1] is reported as greater than 100 µM and the “MIC (μM) BS” value (Bacillus subtilis 168) is reported as 6.25 µM (≈ 9.21 µg/mL).
